Assay [1] concerns KGN. The assay can be described thus: Induction of estrogen biosynthesis in human KGN cells assessed as upregulation of E2 concentration at 25 uM preincubated for 24 hrs followed by testosterone addition for 24 hrs by magnetic particle based ELISA. In kind it is functional.
Assay [2] has as its system KGN. Kind of assay: Induction of estrogen biosynthesis in human KGN cells assessed as upregulation of E2 concentration preincubated for 24 hrs followed by testosterone addition for 24 hrs by magnetic particle based ELISA. The format is functional, cell-based. A general note: ELISA stands for enzyme-linked immunosorbent assay.
The test system of assay [3] is KGN. The assay can be described thus: Upregulation of aromatase expression in human KGN cells at 10 to 50 uM after 24 hrs by Western blot analysis. In kind it is functional. (In general: Immunoblotting shows a protein as a band on a membrane.)

The structures appear in SMILES notation.

What is called EC50 is the concentration needed to bring the measured effect to its halfway point. Take `COc1cc(/C=C/C(=O)OC[C@H]2O[C@@H](O[C@@H]3OC=C[C@@]4(O)[C@H](O)C[C@](C)(OC(C)=O)[C@@H]34)[C@H](O)[C@@H](O)[C@@H]2O)cc(OC)c1O`: the “fold change (FC)” value in assay [1] is listed as 2; in assay [3], 1.5. In addition, the Activity result in assay [2] was “Dose-dependent effect”. For the same molecule, in assay [2], the 50% effective concentration (EC50) was 11.1 µM.

`CC(=O)CC[C@@]1(C)[C@H](C)CC[C@@]2(C)C(CO)=CCC[C@H]12`: the “fold change (FC)” value in assay [1] was 2. For the same molecule, in assay [2], the Activity result was “Dose-dependent effect” and the half-maximal effective concentration (EC50) was 8 µM. For the same molecule, the “fold change (FC)” value in assay [3] came to 1.5.

(Values after ChEMBL document CHEMBL4477157, “Iridoid Glucosides and Diterpenoids from Caryopteris glutinosa” (J Nat Prod, 2016).)
